As a reminder, the Km is the concentration of substrate that gives half-maximal velocity.

Data set [1] has as its target T1, UDP-glucuronosyltransferase 1A7 (Homo sapiens, UniProt Q9HAW7).
T1 sequence (Q9HAW7 whole entry): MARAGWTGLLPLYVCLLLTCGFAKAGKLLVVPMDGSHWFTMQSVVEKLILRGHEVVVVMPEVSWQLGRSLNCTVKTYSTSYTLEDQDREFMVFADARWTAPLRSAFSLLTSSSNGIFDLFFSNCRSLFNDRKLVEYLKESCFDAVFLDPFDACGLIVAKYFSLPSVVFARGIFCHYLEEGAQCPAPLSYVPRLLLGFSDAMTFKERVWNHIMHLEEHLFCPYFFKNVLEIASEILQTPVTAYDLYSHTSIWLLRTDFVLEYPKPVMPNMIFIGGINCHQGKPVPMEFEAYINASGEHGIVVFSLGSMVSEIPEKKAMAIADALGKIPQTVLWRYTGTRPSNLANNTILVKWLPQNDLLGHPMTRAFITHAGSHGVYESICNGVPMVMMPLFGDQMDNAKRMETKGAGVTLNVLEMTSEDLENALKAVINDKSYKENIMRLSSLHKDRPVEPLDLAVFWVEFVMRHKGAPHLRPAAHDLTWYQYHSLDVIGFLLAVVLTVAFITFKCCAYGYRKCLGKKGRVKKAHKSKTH
In words: Drug metabolism assessed as recombinant human UGT1A7 assessed as O-glucuronidation at 100 uM incubated for 60 mins by LC-MS/MS analysis. The conditions noted are these: recombinant enzyme, 1 h. It counts as ADME.

The target in data set [2] is T2, UDP-glucuronosyltransferase 1A10 (Homo sapiens, UniProt Q9HAW8).
T2 sequence (Q9HAW8 whole entry): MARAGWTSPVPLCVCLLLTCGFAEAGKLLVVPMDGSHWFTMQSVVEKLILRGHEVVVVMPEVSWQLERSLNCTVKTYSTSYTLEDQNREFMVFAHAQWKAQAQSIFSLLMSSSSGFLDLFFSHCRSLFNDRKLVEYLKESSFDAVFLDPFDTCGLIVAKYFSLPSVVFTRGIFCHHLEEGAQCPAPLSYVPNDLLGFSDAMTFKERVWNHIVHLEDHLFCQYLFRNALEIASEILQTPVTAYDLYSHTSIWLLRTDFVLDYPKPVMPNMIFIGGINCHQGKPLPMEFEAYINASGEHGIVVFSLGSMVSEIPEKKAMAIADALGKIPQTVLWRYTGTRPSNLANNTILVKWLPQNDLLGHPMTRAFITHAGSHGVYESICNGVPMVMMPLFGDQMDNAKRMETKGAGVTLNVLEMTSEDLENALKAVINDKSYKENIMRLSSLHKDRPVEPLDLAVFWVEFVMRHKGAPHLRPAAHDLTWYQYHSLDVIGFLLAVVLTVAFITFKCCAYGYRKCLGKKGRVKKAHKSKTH
The experiment in a line: Drug metabolism assessed as recombinant human UGT1A10 assessed as N-glucuronidation at 100 uM incubated for 60 mins by LC-MS/MS analysis. In kind it is ADME. The conditions noted are these: recombinant enzyme, 1 h.

In data set [3] the target is T3, UDP-glucuronosyltransferase 2B15 (Homo sapiens, UniProt P54855).
T3 sequence (P54855 whole entry): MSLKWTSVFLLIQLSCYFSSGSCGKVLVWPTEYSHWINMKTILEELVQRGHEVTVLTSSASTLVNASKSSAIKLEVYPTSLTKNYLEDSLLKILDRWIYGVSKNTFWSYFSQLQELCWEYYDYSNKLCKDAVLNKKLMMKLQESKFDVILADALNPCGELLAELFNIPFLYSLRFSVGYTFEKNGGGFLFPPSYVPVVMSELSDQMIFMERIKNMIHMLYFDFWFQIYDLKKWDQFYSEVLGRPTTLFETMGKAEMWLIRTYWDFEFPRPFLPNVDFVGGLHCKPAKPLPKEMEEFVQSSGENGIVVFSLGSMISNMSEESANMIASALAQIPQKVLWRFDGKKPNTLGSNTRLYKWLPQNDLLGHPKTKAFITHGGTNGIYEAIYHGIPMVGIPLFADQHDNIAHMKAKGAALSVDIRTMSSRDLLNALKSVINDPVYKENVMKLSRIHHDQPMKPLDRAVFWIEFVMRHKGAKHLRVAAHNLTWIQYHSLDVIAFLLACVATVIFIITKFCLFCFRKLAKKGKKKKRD
In words: Drug metabolism assessed as recombinant human UGT2B15 assessed as O-glucuronidation at 100 uM incubated for 60 mins by LC-MS/MS analysis. The following applies: recombinant enzyme, 1 h. In kind it is ADME.

Data set [4] addresses T4, UDP-glucuronosyltransferase 1A8 (Homo sapiens, UniProt Q9HAW9).
T4 sequence (Q9HAW9 whole entry): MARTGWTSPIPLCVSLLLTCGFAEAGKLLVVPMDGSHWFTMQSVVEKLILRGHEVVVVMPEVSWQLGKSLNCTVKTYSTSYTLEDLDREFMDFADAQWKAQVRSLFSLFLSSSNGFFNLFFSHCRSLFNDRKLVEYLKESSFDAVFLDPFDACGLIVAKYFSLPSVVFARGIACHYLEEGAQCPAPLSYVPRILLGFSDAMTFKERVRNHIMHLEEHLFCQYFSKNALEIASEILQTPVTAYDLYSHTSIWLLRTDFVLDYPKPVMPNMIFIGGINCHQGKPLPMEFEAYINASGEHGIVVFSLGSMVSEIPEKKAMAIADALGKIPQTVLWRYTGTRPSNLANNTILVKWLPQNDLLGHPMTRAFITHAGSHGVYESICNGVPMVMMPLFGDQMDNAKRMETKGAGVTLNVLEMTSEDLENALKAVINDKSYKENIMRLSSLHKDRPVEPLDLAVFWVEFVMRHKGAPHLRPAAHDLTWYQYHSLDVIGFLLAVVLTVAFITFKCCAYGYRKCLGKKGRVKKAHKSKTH
In words: Drug metabolism assessed as recombinant human UGT1A8 assessed as O-glucuronidation at 100 uM incubated for 60 mins by LC-MS/MS analysis. In kind it is ADME. The conditions noted are these: recombinant enzyme, 1 h.

The next data set addresses T5, UGT1A4 (Homo sapiens, UniProt P22310).
T5 sequence (P22310 whole entry): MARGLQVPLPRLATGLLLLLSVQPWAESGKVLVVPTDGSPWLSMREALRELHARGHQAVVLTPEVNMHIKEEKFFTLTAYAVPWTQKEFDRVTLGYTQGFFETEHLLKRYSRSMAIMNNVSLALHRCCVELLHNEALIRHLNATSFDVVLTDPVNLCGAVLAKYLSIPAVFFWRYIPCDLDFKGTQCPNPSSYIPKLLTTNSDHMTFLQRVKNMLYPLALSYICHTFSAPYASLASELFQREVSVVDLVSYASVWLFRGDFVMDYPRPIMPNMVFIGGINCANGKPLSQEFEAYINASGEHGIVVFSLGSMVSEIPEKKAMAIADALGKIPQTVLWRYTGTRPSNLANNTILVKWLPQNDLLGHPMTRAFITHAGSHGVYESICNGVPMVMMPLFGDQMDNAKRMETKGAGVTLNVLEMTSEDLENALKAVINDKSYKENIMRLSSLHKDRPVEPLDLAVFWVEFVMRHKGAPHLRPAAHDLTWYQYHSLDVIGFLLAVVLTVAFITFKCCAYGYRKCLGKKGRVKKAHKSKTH
The experiment in a line: Drug metabolism assessed as recombinant human UGT1A4 assessed as O-glucuronidation at 10 to 400 uM incubated for 60 mins by LC-MS/MS analysis.

As for `O=C(CCCN1CCC(O)(c2ccc(Cl)cc2)CC1)c1ccc(F)cc1` [HALOPERIDOL], the Drug metabolism result in data set [1], in data set [2], in data set [3] and in data set [4] was “metabolite_not_detected” throughout. In addition, the Km at 1 h, 400 µM at UGT1A4 is 64 µM.

For the origin of these results see ChEMBL document CHEMBL3526000 (Drug Metab Dispos, 2012).
